Results taken from patent US20250221410A1, “SUBSTITUTED 2-C-AZINES AND SALTS THEREOF, AND USE THEREOF AS HERBICIDAL ACTIVE SUBSTANCES” (BAYER AKTIENGESELLSCHAFT, priority 2022, published 2025).

Assays:
Assay type in all cases: in vivo
[1] = system: AMARE: Amaranthus retroflexus; test: Post-emergence herbicidal efficacy at 80 g/ha, AMARE; conditions: visual rating about 3 weeks after treatment vs untreated controls
Description: Seeds of monocotyledonous and dicotyledonous weeds and crop plants were placed in sandy loam in plastic or organic planting pots, covered with soil and cultivated in a greenhouse under controlled growth conditions. 2 to 3 weeks after sowing, the test plants were treated at the one-leaf stage. The compounds of the invention, formulated in the form of wettable powders (WP) or as emulsion concentrates (EC), were then sprayed onto the green parts of the plants as aqueous suspension or emulsion with addition of 0.5% additive at a water application rate of 600 l/ha (converted). After the test plants had been kept in the greenhouse under optimum growth conditions for about 3 weeks, the activity of the preparations was rated visually in comparison to untreated controls. For example, 100% activity=the plants have died, 0% activity=like control plants. Tables B1 to B10 below show the effects of selected compounds of the general formula (I) according to Table 1 on various harmful plants and an application rate corresponding to 80 g/ha, which were obtained by the experimental procedure mentioned above.

[2] = system: AMARE: Amaranthus retroflexus; test: Pre-emergence herbicide efficacy at 80 g/ha, AMARE; conditions: scored visually after about 3 weeks
Text: Seeds of monocotyledonous and dicotyledonous weed plants and crop plants were placed in plastic or organic planting pots and covered with soil. The compounds of the invention, formulated in the form of wettable powders (WP) or as emulsion concentrates (EC), were then applied to the surface of the covering soil as aqueous suspension or emulsion with addition of 0.5% additive at a water application rate equivalent to 600 l/ha. After the treatment, the pots were placed in a greenhouse and kept under good growth conditions for the test plants. After about 3 weeks, the efficacy of the preparations was scored visually in comparison with untreated controls as percentages. For example, 100% activity=the plants have died, 0% activity=like control plants. Tables D1 to D12 below show the effects of selected compounds of the general formula (I) according to Table 1 on various harmful plants and an application rate corresponding to 80 g/ha, which were obtained by the experimental procedure mentioned above.

[3] = system: AMARE: Amaranthus retroflexus; test: Post-emergence herbicidal efficacy at 1280 g/ha, AMARE; conditions: rated visually after about 3 weeks vs untreated controls, 100% = plants have died, 0% = like control plants
Description: (§1) Seeds of mono- and dicotyledonous weed plants were placed in plastic pots in sandy loam soil (doubly sown with in each case one species of mono- or dicotyledonous weed plants per pot), covered with soil and cultivated in a greenhouse under controlled growth conditions. 2 to 3 weeks after sowing, the test plants were treated at the one-leaf stage. The compounds of the invention, formulated in the form of wettable powders (WP) or as emulsion concentrates (EC), were applied to the green parts of the plants as aqueous suspension or emulsion with addition of 0.5% additive at a water application rate equivalent to 600 litres per hectare. After the test plants had been kept in the greenhouse under optimum growth conditions for about 3 weeks, the activity of the preparations was rated visually in comparison to untreated controls. For example, 100% activity=the plants have died, 0% activity=like control plants. Tables A1 to A12 below show the effects of selected compounds of the general formula (I) according to Table 1 on various harmful plants and at an application rate corresponding to 1280 g/ha, which were obtained by the trial procedure specified above.

KCHSC: Kochia scoparia [4] = test: Post-emergence herbicidal efficacy at 1280 g/ha, KCHSC; conditions: visual rating about 3 weeks after treatment vs untreated controls
Description: as §1

POAAN: Poa annua [5] = test: Post-emergence herbicidal efficacy at 1280 g/ha, POAAN; conditions: visual rating about 3 weeks after treatment vs untreated controls
Description: as §1

STEME: Stellaria media [6] = test: Post-emergence herbicidal efficacy at 1280 g/ha, STEME; conditions: visual rating about 3 weeks after treatment vs untreated controls
Description: as §1

VERPE: Veronica persica [7] = test: Post-emergence herbicidal efficacy at 1280 g/ha, VERPE; conditions: visual rating about 3 weeks after treatment vs untreated controls
Description: as §1

[8] = system: ABUTH: Abutilon theophrasti; test: Pre-emergence herbicide efficacy at 1280 g/ha, ABUTH; conditions: visual scoring after about 3 weeks vs untreated controls
Text: (§2) Seeds of mono- and dicotyledonous weed plants were placed in plastic pots in sandy loam soil (doubly sown with one species each of mono- or dicotyledonous weed plants per pot) and covered with soil. The compounds of the invention, formulated in the form of wettable powders (WP) or as emulsion concentrates (EC), were then applied to the surface of the covering soil as aqueous suspension or emulsion with addition of 0.5% additive at a water application rate of 600 litres per hectare (converted). After the treatment, the pots were placed in a greenhouse and kept under good growth conditions for the test plants. After about 3 weeks, the efficacy of the preparations was scored visually in comparison with untreated controls as percentages. For example, 100% activity=the plants have died, 0% activity=like control plants. Tables C1 to C12 below show the effects of selected compounds of the general formula (I) according to Table 1 on various harmful plants and at an application rate corresponding to 1280 g/ha, which were obtained by the trial procedure specified above.

[9] = system: AMARE: Amaranthus retroflexus; test: Pre-emergence herbicide efficacy at 1280 g/ha, AMARE; conditions: visual scoring after about 3 weeks vs untreated controls
Text: as §2

[10] = system: DIGSA: Digitaria sanguinalis; test: Pre-emergence herbicide efficacy at 1280 g/ha, DIGSA; conditions: visual scoring after about 3 weeks vs untreated controls
Text: as §2

[11] = system: ECHCG: Echinochloa crus-galli; test: Pre-emergence herbicide efficacy at 1280 g/ha, ECHCG; conditions: visual scoring after about 3 weeks vs untreated controls
Text: as §2

POAAN: Poa annua [12] = test: Pre-emergence herbicide efficacy at 1280 g/ha, POAAN; conditions: visual scoring after about 3 weeks vs untreated controls
Text: as §2

SETVI: Setaria viridis [13] = test: Pre-emergence herbicide efficacy at 1280 g/ha, SETVI; conditions: visual scoring vs untreated controls
Text: as §2

STEME: Stellaria media [14] = test: Pre-emergence herbicide efficacy at 1280 g/ha, STEME; conditions: visual scoring vs untreated controls
Text: as §2

VERPE: Veronica persica [15] = test: Pre-emergence herbicide efficacy at 1280 g/ha, VERPE; conditions: visual scoring vs untreated controls
Text: as §2

[16] = system: ABUTH: Abutilon theophrasti; test: Post-emergence herbicidal efficacy at 1280 g/ha, ABUTH; conditions: rated visually after about 3 weeks vs untreated controls, 100% = plants have died, 0% = like control plants
Description: as §1

SETVI: Setaria viridis [17] = test: Post-emergence herbicidal efficacy at 1280 g/ha, SETVI; conditions: visual rating about 3 weeks after treatment vs untreated controls
Description: as §1

KCHSC: Kochia scoparia [18] = test: Pre-emergence herbicide efficacy at 1280 g/ha, KCHSC; conditions: visual scoring after about 3 weeks vs untreated controls
Text: as §2

SMILES | Post-emergence efficacy against AMARE [1] [%] | Pre-emergence efficacy against AMARE in % [2] [%] | Post-emergence efficacy at 1280 g/ha against AMARE in % [3] [%] | Post-emergence efficacy against KCHSC (KCHSC: Kochia scoparia [4]) [%] | Post-emergence efficacy against POAAN (POAAN: Poa annua [5]) [%] | Post-emergence efficacy against STEME (STEME: Stellaria media [6]) [%] | Post-emergence efficacy against VERPE (VERPE: Veronica persica [7]) [%] | Pre-emergence efficacy against ABUTH [8] [%] | Pre-emergence efficacy against AMARE [9] [%] | Pre-emergence efficacy against DIGSA [10] [%] | Pre-emergence efficacy against ECHCG [11] [%] | Pre-emergence efficacy against POAAN (POAAN: Poa annua [12]) [%] | Pre-emergence efficacy against SETVI in % (SETVI: Setaria viridis [13]) [%] | Pre-emergence efficacy against STEME in % (STEME: Stellaria media [14]) [%] | Pre-emergence efficacy against VERPE in % (VERPE: Veronica persica [15]) [%] | Post-emergence efficacy at 1280 g/ha against ABUTH in % [16] [%] | Post-emergence efficacy against SETVI (SETVI: Setaria viridis [17]) [%] | Pre-emergence efficacy against KCHSC (KCHSC: Kochia scoparia [18]) [%]
O=S(=O)(CCCC(F)(F)F)Oc1c(F)cccc1Cc1ncc(F)cn1 [Example 1-15] | 90 |  |  |  |  |  |  |  |  |  |  |  |  |  |  |  |  | 
Fc1cccc(Cc2ncc(Cl)cn2)c1Oc1ncc(Cl)cn1 [Example 1-151] | 80 | 80 |  |  |  |  |  |  |  |  |  |  |  |  |  |  |  | 
Fc1ccc(Oc2ccccc2Cc2ncccn2)cc1 [Example 1-98] |  |  | 100 | 90 | 90 | 90 | 100 | 100 | 100 | 100 | 90 | 90 | 90 | 90 | 90 |  |  | 
Fc1ccc(Sc2ccccc2Cc2ccc(Cl)cn2)cc1 [Example 1-105] |  |  | 90 | 90 | 90 | 90 | 90 |  | 100 |  | 90 | 100 |  | 90 | 100 | 90 |  | 
Fc1ccc(Oc2ccccc2Cc2ccc(Cl)cn2)cc1 [Example 1-74] |  |  | 90 |  | 90 |  |  |  | 100 | 100 |  | 100 | 100 |  |  |  | 90 | 90
O=S(=O)(CCC(F)(F)F)Oc1c(Cl)cccc1Cc1ncc(Cl)cn1 [Example 1-20] | 90 |  |  |  |  |  |  |  |  |  |  |  |  |  |  |  |  | 
O=S(=O)(CCCC(F)(F)F)Oc1c(Cl)cccc1Cc1ncc(Cl)cn1 [Example 1-18] | 90 |  |  |  |  |  |  |  |  |  |  |  |  |  |  |  |  | 
Fc1cccc(OCCCC(F)(F)F)c1Cc1ncc(Cl)cn1 [Example 1-60] |  |  |  |  |  |  | 100 |  |  |  |  | 90 |  |  | 90 |  |  | 
Fc1ccc(Cc2ccccc2Oc2ncc(Cl)cc2F)nc1 [Example 1-103] |  |  | 100 | 90 | 100 | 100 | 100 | 100 | 100 | 90 | 90 | 90 | 100 | 100 | 90 | 100 | 90 | 
O=S(=O)(CCC(F)(F)F)c1ccccc1Cc1ncc(F)cn1 [Example 1-150] | 80 |  |  |  |  |  |  |  |  |  |  |  |  |  |  |  |  | 
COc1cccc(Cc2ncc(Cl)cn2)c1Oc1ccc(F)cc1 [Example 1-33] |  |  |  |  | 90 | 90 | 90 |  | 100 |  |  | 100 | 100 | 90 | 100 |  |  | 
Fc1ccc(Cc2ccccc2Cc2ncc(F)cn2)cc1 [Example 1-95] |  |  | 100 | 100 | 100 | 100 | 90 | 100 | 100 | 90 | 90 | 90 |  | 100 | 100 | 100 | 90 | 90
Fc1ccc(-c2ccccc2Cc2ncc(Cl)cc2F)cc1F [Example 1-127] |  |  | 100 | 100 | 100 | 100 | 100 |  | 100 | 90 |  | 90 | 100 | 90 | 90 | 100 | 90 | 90
[O-][S+](c1ccc(F)cc1)c1ccccc1Cc1ncc(Cl)cn1 (stereo not shown) [Example 1-142] | 80 |  |  |  |  |  |  |  |  |  |  |  |  |  |  |  |  | 
